From ChEMBL document CHEMBL4513151, “CO-ADD screening of Institut Català d'Investigació Química (Spain) compounds”
In brackets after ≈: the same amount, converted by molar mass.

Experiments:
HEK293 = assay: cells; type: functional; conditions: Homo sapiens, ATCC CRL1573, HEK293; ASSAY_TEST Inhibition of Cell Viability; detection method Resazurin; Fluorescence (ex560/em590); MEDIA DMEM with 10% FBS; plate type 384well; TC; CORNING #3712; time 18 hr
Staphylococcus aureus = assay: microbe, parasite or virus in culture; conditions: ATCC 43300, 18 h, ASSAY_TEST Inhibition of Bacterial Growth, detection method Absorption (OD600), MEDIA CAMHB, plate type 384well, NBS, CORNING #3640
Description: Antibacterial activity against Staphylococcus aureus MRSA ATCC 43300 (CO-ADD:GP_020); MIC in CAMBH media, using NBS plates, by OD(600)

Escherichia coli = assay: microbe, parasite or virus in culture; conditions: ATCC 25922, 18 h, ASSAY_TEST Inhibition of Bacterial Growth, detection method Absorption (OD600), MEDIA CAMHB, plate type 384well, NBS, CORNING #3640
Description: Antibacterial activity against Escherichia coli ATCC 25922 (CO-ADD:GN_001); MIC in CAMBH media using NBS plates, by OD(600)

Klebsiella pneumoniae = assay: microbe, parasite or virus in culture; conditions: ATCC 700603, 18 h, ASSAY_TEST Inhibition of Bacterial Growth, detection method Absorption (OD600), MEDIA CAMHB, plate type 384well, NBS, CORNING #3640
Description: Antibacterial activity against Klebsiella pneumoniae MDR ATCC 70063 (CO-ADD:GN_003); MIC in CAMBH media using NBS plates, by OD(600)

Pseudomonas aeruginosa = assay: microbe, parasite or virus in culture; conditions: ATCC 27853, 18 h, ASSAY_TEST Inhibition of Bacterial Growth, detection method Absorption (OD600), MEDIA CAMHB, plate type 384well, NBS, CORNING #3640
Description: Antibacterial activity against Pseudomonas aeruginosa ATCC 27853 (CO-ADD:GN_042); MIC in CAMBH media using NBS plates, by OD(600)

Acinetobacter baumannii = assay: microbe, parasite or virus in culture; conditions: ATCC 19606, 18 h, ASSAY_TEST Inhibition of Bacterial Growth, detection method Absorption (OD600), MEDIA CAMHB, plate type 384well, NBS, CORNING #3640
Description: Antibacterial activity against Acinetobacter baumannii ATCC 19606 (CO-ADD:GN_034); MIC in CAMBH media using NBS plates, by OD600

Candida albicans = assay: microbe, parasite or virus in culture; conditions: ATCC 90028, ASSAY_TEST Inhibition of Fungal Growth, detection method Absorption (OD530), plate type 384well, NBS, CORNING #3640
Description: Antifungal activity against Candida albicans ATCC 90028 (CO-ADD:FG_001); MIC in YNB media using NBS plates, by OD630

Description for Cryptococcus neoformans: Antifungal activity against Cryptococcus neoformans H99 ATCC 208821 (CO-ADD:FG_002); MIC in YNB media using NBS plates, by Resazurin OD(600-570)

With `C[C@]12CC[C@@H](O1)[C@H]1C=C[C@H](OC(=O)c3ccccc3)[C@H]12` the CC50 (HEK293) was > 32 µg/mL, the MIC (Cryptococcus neoformans) was > 32 µg/mL and the MIC (Staphylococcus aureus) was 32 µg/mL (≈ 118 µM). The MIC (Escherichia coli) was > 32 µg/mL, the MIC (Klebsiella pneumoniae) was > 32 µg/mL and the MIC (Pseudomonas aeruginosa) was > 32 µg/mL. The MIC (Acinetobacter baumannii) was > 32 µg/mL and the MIC (Candida albicans) was > 32 µg/mL.
